{"source": "patent US11065253B2", "about": "“Arylquinazolines” (Merck Patent GmbH, priority 2013, dated 2021)", "tested_on": "phospho-serine 2056 DNA-PK in HCT116 cells", "experiment": "DNA-PK phosphorylation at serine 2056 (cellular), ELISA in bleomycin-treated HCT116 cells", "assay_type": "cell-based", "conditions": "read-out: IC50 pDNA-PK", "method_in_brief": "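Chemiluminescent ELISA read-out; phospho-specific signal normalised to total DNA-PKcs. Cells (HCT116) exposed 6 h to test compound plus 10 μM bleomycin to induce double-strand breaks; DMSO control served as blank.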", "key": {"[1]": {"conditions": "Homo sapiens, HCT-116, phospho-serine 2056 DNA-PK, bleomycin-treated HCT116 cells, class symbols A-D"}, "[2]": {"conditions": "Homo sapiens, HCT-116, phospho-serine 2056 DNA-PK, bleomycin-treated HCT116 cells"}, "[3]": {"conditions": "Homo sapiens, HCT-116, cellular DNA-PK phosphorylation at serine 2056, HCT116 cells"}, "[4]": {"conditions": "cellular DNA-PK phosphorylation at serine 2056, HCT116 cells"}, "[5]": {"conditions": "Homo sapiens, HCT-116, 6 h, cellular, HCT116 cells, 10 μM bleomycin, six hours"}}, "note": "Where two headings read alike, the source gives them in different places."}
{"smiles": "OC(c1cn2ccnc2cn1)c1cc(-c2ncnc3cc(N4CCOCC4)ccc23)c(F)cc1F", "note": "(centres unmarked) [Example 223, [2,4-Difluoro-5-(7-morpholin-4-yl-quinazolin-4-yl)-phenyl]imidazo-[1,2-a]pyrazin-6-yl-methanol]", "values": [{"measurement": "IC50", "setting": "[1]", "result": "500 to 5000", "unit": "nM"}]}
{"smiles": "COc1ccc(C(O)c2cc(-c3ncnc4cc(N5CCOCC5)ccc34)ccc2F)nn1", "note": "(centres unmarked) [Example 357, [2-Fluoro-5-(7-morpholin-4-yl-quinazolin-4-yl)-phenyl]-(6-methoxy-pyridazin-3-yl)-methanol]", "values": [{"measurement": "IC50", "setting": "[2]", "result": "500 to 5000", "unit": "nM"}]}
{"smiles": "OC(c1cc(-c2ncnc3cc(N4CCOCC4)ccc23)ccc1F)c1ncnc2sccc12", "note": "(centres unmarked) [Example 406, [2-Fluoro-5-(7-morpholin-4-yl-quinazolin-4-yl)-phenyl]thieno[2,3-d}-pyrimidin-4-yl-methanol]", "values": [{"measurement": "IC50", "setting": "[3]", "result": "< 500", "unit": "nM"}]}
{"smiles": "Cn1c(C(O)c2cc(-c3ncnc4cc(N5CCOCC5)ccc34)c(F)cc2F)cccc1=O", "note": "(centres unmarked) [Example 436, 6-{[2,4-Difluoro-5-(7-morpholin-4-yl-quinazolin-4-yl)-phenyl]hydroxy-methyl}-1-methyl-1H-pyridin-2-one]", "values": [{"measurement": "IC50", "setting": "[4]", "result": "500 to 5000", "unit": "nM"}]}
{"smiles": "Cn1c(C(O)c2ccc(F)c(-c3ncnc4cc(N5CCOCC5)ccc34)c2)nccc1=O", "note": "(centres unmarked) [Example 360, 2-([4-Fluoro-3-(7-morpholin-4-yl-quinazolin-4-yl)-phenyl]hydroxy-methyl}-3-methyl-3H-pyrimidin-4-one]", "values": [{"measurement": "IC50", "setting": "[2]", "result": "500 to 5000", "unit": "nM"}]}
{"smiles": "OC(c1ccc(Cl)nn1)c1cc(-c2ncnc3cc(N4CCOCC4)ccc23)c(F)cc1Cl", "note": "(centres unmarked) [Example 41, [2-Chloro-4-fluoro-5-(7-morpholin-4-yl-quinazolin-4-yl)phenyl]-(6-chloro-pyridazin-3-yl)methanol]", "values": [{"measurement": "IC50", "setting": "[5]", "result": "< 500", "unit": "nM"}]}
{"smiles": "Cc1cncnc1C(O)c1cc(-c2ncnc3cc(N4CCOCC4)ccc23)ccc1Cl", "note": "(centres unmarked) [Example 419, [2-Chloro-5-(7-morpholin-4-yl-quinazolin-4-yl)-phenyl]-(5-methyl-pyrimidin-4-yl)-methanol]", "values": [{"measurement": "IC50", "setting": "[4]", "result": "500 to 5000", "unit": "nM"}]}
{"smiles": "COc1nccnc1C(O)c1ccc(F)c(-c2ncnc3cc(N4CCOCC4)ccc23)c1", "note": "(centres unmarked) [Example 15, [4-Fluoro-3-(7-morpholin-4-yl-quinazolin-4-yl)phenyl]-(3-methoxy-pyrazin-2-yl)methanol]", "values": [{"measurement": "IC50", "setting": "[5]", "result": "< 500", "unit": "nM"}]}
{"smiles": "Cn1c(C(O)c2ccc(F)c(-c3ncnc4cc(N5CCOCC5)ccc34)c2)cccc1=O", "note": "(centres unmarked) [Example 376, 6-{[4-Fluoro-3-(7-morpholin-4-yl-quinazolin-4-yl)-phenyl]hydroxy-methyl}-1-methyl-1H-pyridin-2-one (Ena 1)]", "values": [{"measurement": "IC50", "setting": "[4]", "result": "< 500", "unit": "nM"}]}
{"smiles": "Cn1c(C(O)c2cc(-c3ncnc4cc(N5CCOCC5)ccc34)c(F)cc2F)cccc1=O", "note": "(centres unmarked) [Example 381, 6-{[2,4-Difluoro-5-(7-morpholin-4-yl-quinazolin-4-yl)-phenyl]hydroxy-methyl}-1-methyl-1H-pyridin-2-one (Ena 1)]", "values": [{"measurement": "IC50", "setting": "[4]", "result": "500 to 5000", "unit": "nM"}]}
{"smiles": "COc1nccnc1C(C(N)=O)c1cc(-c2ncnc3cc(N4CCOCC4)ccc23)c(F)cc1F", "note": "(centres unmarked) [Example 319, 2-[2,4-Difluoro-5-(7-morpholin-4-ylquinazolin-4-yl)phenyl]-2-(3-methoxypyrazin-2-yl)-acetamide]", "values": [{"measurement": "IC50", "setting": "[2]", "result": "5000 to 10000", "unit": "nM"}]}
{"smiles": "CC(O)c1csc(C(O)c2cc(-c3ncnc4cc(N5CCOCC5)ccc34)c(F)cc2Cl)n1", "note": "(centres unmarked) [Example 201, 1-(2-{[2-Chloro-4-fluoro-5-(7-morpholin-4-yl-quinazolin-4-yl)-phenyl]hydroxy-methyl}thiazol-4-yl)-ethanol]", "values": [{"measurement": "IC50", "setting": "[1]", "result": "500 to 5000", "unit": "nM"}]}
{"smiles": "Cc1nccnc1[C@H](O)c1ccc(F)c(-c2ncnc3cc(N4CCOCC4)ccc23)c1", "note": "[Example 83, (R)-[4-Fluoro-3-(7-morpholin-4-yl-quinazolin-4-yl)-phenyl]-(3-methyl-pyrazin-2-yl)methanol]", "values": [{"measurement": "IC50", "setting": "[5]", "result": "< 500", "unit": "nM"}]}
{"smiles": "Cn1ncc2c(C(O)c3ccc(F)c(-c4ncnc5cc(N6CCOCC6)ccc45)c3)ncnc21", "note": "(centres unmarked) [Example 404, [4-Fluoro-3-(7-morpholin-4-yl-quinazolin-4-yl)-phenyl]-(1-methyl-1H-pyrazolo[3,4-d}-pyrimidin-4-yl)-methanol]", "values": [{"measurement": "IC50", "setting": "[3]", "result": "< 500", "unit": "nM"}]}
{"smiles": "OC(c1cc(-c2ncnc3cc(N4CCOCC4)ccc23)c(F)cc1F)c1ncnc2ccsc12", "note": "(centres unmarked) [Example 439, [2,4-Difluoro-5-(7-morpholin-4-yl-quinazolin-4-yl)-phenyl]thieno[3,2-d}-pyrimidin-4-yl-methanol]", "values": [{"measurement": "IC50", "setting": "[3]", "result": "< 500", "unit": "nM"}]}
{"smiles": "NC(=O)C(c1cccnc1)c1ccc(F)c(-c2ncnc3cc(N4CCOCC4)ccc23)c1", "note": "(centres unmarked) [Example 295, 2-[4-Fluoro-3-(7-morpholin-4-yl-quinazolin-4-yl)-phenyl]-2-pyridin-3-ylacetamide]", "values": [{"measurement": "IC50", "setting": "[2]", "result": "10000 to 30000", "unit": "nM"}]}
{"smiles": "COc1ccc(C(O)c2ccc(F)c(-c3ncnc4cc(N5CCOCC5)ccc34)c2)nn1", "note": "(centres unmarked) [Example 74, [4-Fluoro-3-(7-morpholin-4-yl-quinazolin-4-yl)phenyl]-(6-methoxypyridazin-3-yl)methanol]", "values": [{"measurement": "IC50", "setting": "[5]", "result": "< 500", "unit": "nM"}]}
{"smiles": "OC(c1cc(-c2ncnc3cc(N4CCOCC4)ccc23)c(F)cc1F)c1nccnc1OC(F)F", "note": "(centres unmarked) [Example 451, (3-Difluoromethoxy-pyrazin-2-yl)-[2,4-difluoro-5-(7-morpholin-4-yl-quinazolin-4-yl)-phenyl]methanol]", "values": [{"measurement": "IC50", "setting": "[4]", "result": "500 to 5000", "unit": "nM"}]}
{"smiles": "COc1cc(C)c(C(O)c2cc(-c3ncnc4cc(N5CCOCC5)ccc34)c(F)cc2Cl)nn1", "note": "(centres unmarked) [Example 109, [2-Chloro-4-fluoro-5-(7-morpholin-4-yl-quinazolin-4-yl)-phenyl]-(6-methoxy-4-methylpyridazin-3-yl)methanol]", "values": [{"measurement": "IC50", "setting": "[1]", "result": "5000 to 10000", "unit": "nM"}]}
{"smiles": "COc1ccc(C(OC)c2ccc(F)c(-c3ncnc4cc(N5CCOCC5)ccc34)c2)nn1", "note": "(centres unmarked) [Example 73, 4-{2-Fluoro-5-[methoxy-(6-methoxy-pyridazin-3-yl)methyl]phenyl}-7-morpholin-4-yl-quinazoline]", "values": [{"measurement": "IC50", "setting": "[5]", "result": "500 to 5000", "unit": "nM"}]}
{"smiles": "Cc1nccnc1C(O)c1cc(-c2ncnc3cc(N4CCOCC4)ccc23)c(F)cc1Cl", "note": "(centres unmarked) [Example 457, [2-Chloro-4-fluoro-5-(7-morpholin-4-yl-quinazolin-4-yl)-phenyl]-(3-methyl-pyrazin-2-yl)-methanol]", "values": [{"measurement": "IC50", "setting": "[3]", "result": "< 500", "unit": "nM"}]}
{"smiles": "OC(c1ccc(F)c(-c2ncnc3cc(N4CCOCC4)ccc23)c1)c1ncccc1C(F)(F)F", "note": "(centres unmarked) [Example 80, [4-Fluoro-3-(7-morpholin-4-yl-quinazolin-4-yl)-phenyl]-(3-trifluoro-methylpyridin-2-yl)-methanol]", "values": [{"measurement": "IC50", "setting": "[5]", "result": "500 to 5000", "unit": "nM"}]}
{"smiles": "[2H]c1c(N2CCOCC2)cc2ncnc(-c3cc(C(O)c4nccnc4C)ccc3F)c2c1[2H]", "note": "(centres unmarked) [Example 226, [3-(5,6-Dideuterio-7-morpholino-quinazolin-4-yl)-4-fluorophenyl]-(3-methylpyrazin-2-yl)-methanol]", "values": [{"measurement": "IC50", "setting": "[2]", "result": "< 500", "unit": "nM"}]}
{"smiles": "COc1nccnc1C(O)c1ccc(F)c(-c2ncnc3cc(N4CCOCC4)ccc23)c1", "note": "(centres unmarked) [Example 38, [4-Fluoro-3-(7-morpholin-4-yl-quinazolin-4-yl)phenyl]-(3-methoxy-pyrazin-2-yl)methanol]", "values": [{"measurement": "IC50", "setting": "cellular, HCT116 cells, 10 μM bleomycin, six hours", "result": "< 500", "unit": "nM"}]}
{"smiles": "COc1cc(Cl)nnc1C(O)c1cc(-c2ncnc3cc(N4CCOCC4)ccc23)c(F)cc1Cl", "note": "(centres unmarked) [Example 8, [2-Chloro-4-fluoro-5-(7-morpholin-4-yl-quinazolin-4-yl)phenyl]-(6-chloro-4-methoxy-pyridazin-3-yl)methanol]", "values": [{"measurement": "IC50", "setting": "[5]", "result": "500 to 5000", "unit": "nM"}]}
{"smiles": "NC(=O)C(c1ccc2nccn2n1)c1cc(-c2ncnc3cc(N4CCOCC4)ccc23)c(F)cc1Cl", "note": "(centres unmarked) [Example 323, 2-[2-Chloro-4-fluoro-5-(7-morpholin-4-yl-quinazolin-4-yl)-phenyl]-2-imidazo-[1,2-b]pyridazin-6-yl-acetamide]", "values": [{"measurement": "IC50", "setting": "[2]", "result": "500 to 5000", "unit": "nM"}]}
